These results are taken from patent US8440836B2, “Heterocyclic alkanol derivatives” (Bayer Intellectual Property GmbH, priority 2010, dated 2013).

Data set [1] is described as follows: logP by HPLC (EEC Directive 79/831 Annex V.A8). The format is physicochemical. The following applies: HPLC reversed-phase C18, method [a]: LC-MS, pH 2.7, 0.1% aqueous formic acid / acetonitrile, gradient 10% to 95% acetonitrile.
A further data set deals with Sphaerotheca fuliginea. The experiment in a line: Sphaerotheca test (cucumber)/protective. The following applies: cucumber plants, protective spray, 500 ppm active ingredient, evaluation 7 days after inoculation.
Data set [2] concerns Blumeria graminis f.sp. hordei. Nature of the data set: Blumeria graminis test (barley)/protective. The class given is in vivo. Particulars: barley plants, protective spray, 500 ppm active ingredient, evaluation 7 days after inoculation.

As usually defined, the chromatographic logP is a lipophilicity value derived from retention on a column. High values mean a more lipophilic compound, low ones a more hydrophilic compound.

Procedure for Sphaerotheca fuliginea: • Solvent: 49 parts by weight of N,N-dimethylformamide • Emulsifier: 1 part by weight of alkylaryl polyglycol ether
To produce an appropriate active ingredient formulation, 1 part by weight of active ingredient is mixed with the specified amounts of solvent and emulsifier, and the concentrate is diluted with water to the desired concentration. To test for protective activity, young cucumber plants are sprayed with the formulation of active ingredient at the stated application rate. 1 day after the treatment, the plants are inoculated with a spore suspension of Sphaerotheca fuliginea. The plants are then placed in a greenhouse at 70% relative air humidity and a temperature of 23° C. Evaluation follows 7 days after the inoculation.

In the case of `CC(C)(C)c1ccc(OCC(O)(c2cncs2)C(C)(C)C)cc1` (stereo not drawn) [Compound 40], the logP result in data set [1] is “logP 4.39^[a]; [M + H]^+ = 334”. The efficacy in the data set on Sphaerotheca fuliginea amounted to 90%.
Take `CC(C)(C)C(O)(CCc1ccc(SC(F)(F)F)cc1)c1cncs1` (stereo not drawn) [Compound 6]: the efficacy with Sphaerotheca fuliginea came to 100%.
On to `CC(C)(C)C(O)(COc1ccc(-c2ccc(C(F)(F)F)cc2)cc1)c1cncs1` (stereo not drawn) [Compound 30], for which the logP result in data set [1] is “logP 4.62^[a]; [M + H]^+ = 422”.
Turning to `CC(C)(C)C(O)(COc1ccc(Oc2ccc(C(F)(F)F)cc2)cc1)c1cncs1` (stereo not drawn) [Compound 32], the logP entry in data set [1] was “logP 4.63^[a]; [M + H]^+ = 438”. Moreover, the efficacy with Sphaerotheca fuliginea is given as 96%.
Turning to `OC(Cc1ccccc1Cl)(c1cnco1)C1(Cl)CC1` (stereo not drawn) [Compound 69], the logP entry in data set [1] was “logP 2.88^[a]; [M + H]^+ = 299”.
Turning to `CC(C)(C)C(O)(COc1ccc(Cl)cc1)Cc1cnc(Cl)s1` (stereo not drawn) [Compound 61], in data set [1], the logP entry is “logP 4.68^[a]; [M + H]^+ = 360”.
Compound `OC(Cc1ccccc1Cl)(c1cncs1)C1(Cl)CC1` (stereo not drawn) [Compound 7] displayed an efficacy in the data set on Sphaerotheca fuliginea of 83%.
As for `CC1(C(O)(COc2cccc(Br)c2)c2cncs2)CC1` (stereo not drawn) [Compound 27], the logP entry in data set [1] was “logP 3.24^[a]; [M + H]^+ = 354, 356”. This compound showed an efficacy in the data set on Sphaerotheca fuliginea of 93%.
For the compound `CC(C)(C)C(O)(COc1ccc(F)cc1)Cc1cncs1` (stereo not drawn) [Compound 66], in data set [1], the logP entry is “logP 3.16^[a]; [M + H]^+ = 310”.
On to `CCN(C)C=Nc1ccc(CCC(O)(c2cncs2)C(C)(C)C)cc1` (stereo not drawn) [Compound 78], for which, in data set [1], the logP result is “logP 1.33^[a]; [M + H]^+ = 360”.
In the case of `CC(C)(C)C(O)(COc1ccc(Cl)cc1)Cc1cncs1` (stereo not drawn) [Compound 64], the logP result in data set [1] was “logP 3.49^[a]; [M + H]^+ = 326”. In the data set on Sphaerotheca fuliginea, this compound registered an efficacy of 100%.
As for `CC(C)(C)C(O)(CCc1ccc(Br)cc1)c1cncs1` (stereo not drawn) [Compound 72], the logP entry in data set [1] is “logP 3.69^[a]; [M + H]^+ = 354, 356”. The compound also returned an efficacy with Sphaerotheca fuliginea of 100%.
In the data set on Sphaerotheca fuliginea, `CC(C)(C)C(O)(CCc1ccc(Cl)cc1)Cc1cncs1` (stereo not drawn) [Compound 18] showed an efficacy of 95%.
Take `CC(C)(C)C(O)(COc1ccc(-c2ccc(Cl)cc2)cc1)c1cncs1` (stereo not drawn) [Compound 36]: the logP result in data set [1] is “logP 4.55^[a]; [M + H]^+ = 388”. In the data set on Sphaerotheca fuliginea, the efficacy turned out to be 98%.
Consider `CC1(C(O)(COc2cccc(I)c2)c2cncs2)CC1` (stereo not drawn) [Compound 26], for which, in data set [1], the logP entry is “logP 3.41^[a]; [M + H]^+ = 402”. The efficacy with Sphaerotheca fuliginea was found to be 75%.
As to `OC(Cc1cnc(Cl)s1)(Cc1ccccc1F)C1(Cl)CC1` (stereo not drawn) [Compound 59], the logP result in data set [1] was “logP 4.21^[a]; [M + H]^+ = 346”.
Regarding `CC(C)(C)C(O)(COc1ccc(C2CCCC2)cc1)c1cncs1` (stereo not drawn) [Compound 80], the logP entry in data set [1] was “logP 4.78^[a]; [M + H]^+ = 346”. The compound also came in with an efficacy in the data set with Sphaerotheca fuliginea of 94%.
In the case of `CC(C)(C)C(O)(CCc1ccc(N)cc1)c1cncs1` (stereo not drawn) [Compound 76], in data set [1], the logP entry is “logP 1.16; [M + H]^+ = 291”.
Take `OC(COc1ccc(I)cc1)(c1cncs1)C1(C(F)(F)F)CC1` (stereo not drawn) [Compound 81]: the logP entry in data set [1] is “logP 3.59^[a]; [M + H]^+ = 456”.
For `CC(C)(C)C(O)(CCc1ccc(Cl)cc1)c1cnco1` (stereo not drawn) [Compound 71], the logP result in data set [1] is “logP 3.45^[a]; [M + H]^+ = 294”.
Consider `OC(COc1ccc(Br)cc1)(c1cncs1)C1(C(F)(F)F)CC1` (stereo not drawn) [Compound 82], for which the logP result in data set [1] was “logP 3.43^[a]; [M + H]^+ = 408/410”.
As to `CC(C)(C)C(O)(CCc1ccc([N+](=O)[O-])cc1)c1cncs1` (stereo not drawn) [Compound 75], the logP result in data set [1] is “logP 2.98^[a]; [M + H]^+ = 321”.
Still for that read-out and setting: to `CC(C)(C)c1ccc(CCC(O)(c2cncs2)C(C)(C)C)cc1` (stereo not drawn) [Compound 77] belongs “logP 1.98^[a]; [M + H]^+ = 333”.
Turning to `CC(C)(C)C(O)(CCc1ccc(OC(F)(F)F)cc1)c1cncs1` (stereo not drawn) [Compound 74], the logP entry in data set [1] was “logP 3.93^[a]; [M + H]^+ = 360”. Besides, in the data set on Sphaerotheca fuliginea, the efficacy was determined as 100%.
`CC1(C(O)(COc2ccc(Cl)cc2)c2cncs2)CCCCC1` (stereo not drawn) [Compound 34]: in data set [1], the logP result was “logP 4.25^[a]; [M + H]^+ = 352”. For the same compound, the efficacy in the data set on Sphaerotheca fuliginea is on record as 99%.
Taken in the same sequence, the figures for `CC(CF)(CF)C(O)(COc1ccc(Cl)cc1)Cc1cncs1` (stereo not drawn) [Compound 67] were “logP 3.04^[a]; [M + H]^+ = 362” and 95%.
As for `CC(CF)(CF)C(O)(COc1ccc(Cl)cc1)Cc1cnc(Cl)s1` (stereo not drawn) [Compound 65], in data set [1], the logP entry was “logP 3.94^[a]; [M + H]^+ = 397”.
Turning to `CC(C)(C)C(O)(COc1ccc(SC(F)(F)Cl)cc1)c1cncs1` (stereo not drawn) [Compound 58], the logP result in data set [1] is “logP 4.23^[a]; [M + H]^+ = 394”.
Turning to `CC(CF)(CF)C(O)(Cc1ccccc1F)c1cncs1` (stereo not drawn) [Compound 47], the logP result in data set [1] is “logP 2.47^[a]; [M + H]^+ = 316”.
On to `OC(Cc1cnc(I)s1)(Cc1ccccc1Cl)C1(Cl)CC1` (stereo not drawn) [Compound 39], for which the efficacy amounted to 90% in data set [2] and 100% in the data set with Sphaerotheca fuliginea.
As to `CC(CF)(CF)C(O)(COc1ccc(Br)cc1)c1cncs1` (stereo not drawn) [Compound 8], the figures for the efficacy (in data set [2]; in the data set with Sphaerotheca fuliginea) were 89% and 94%, respectively. Further, in data set [1], the logP result is “logP 3.02^[a]; [M + H]^+ = 392/394”.
Regarding `CC(C)(C)C(O)(COc1ccc(C2CCCCC2)cc1)c1cncs1` (stereo not drawn) [Compound 37], in data set [1], the logP entry is “logP 5.21^[a]; [M + H]^+ = 360”. Moreover, in the data set on Sphaerotheca fuliginea, the efficacy is on record as 100%.
`CC(CF)(CF)C(O)(COc1ccc(Cl)cc1)c1cncs1` (stereo not drawn) [Compound 9]: in data set [1], the logP entry is “logP 2.94^[a]; [M + H]^+ = 348”. In the data set on Sphaerotheca fuliginea, this compound registered an efficacy of 95%.
Regarding `CC1(C(O)(COc2ccccc2I)c2cncs2)CC1` (stereo not drawn) [Compound 55], the logP result in data set [1] was “logP 3.33^[a]; [M + H]^+ = 402”.
Take `CC(C)(C)C(O)(COc1ccc(-c2ccccc2)cc1)c1cncs1` (stereo not drawn) [Compound 50]: in data set [1], the logP entry is “logP 4.03^[a]; [M + H]^+ = 354”. Further, in the data set with Sphaerotheca fuliginea, the efficacy worked out at 100%.
`CC(C)C(O)(COc1ccc(SC(F)(F)F)cc1)c1cncs1` (stereo not drawn) [Compound 17] yielded an efficacy with Sphaerotheca fuliginea of 93%.
As for `CC(CF)(CF)C(O)(Cc1ccccc1Cl)c1cncs1` (stereo not drawn) [Compound 46], the logP entry in data set [1] is “logP 2.78^[a]; [M + H]^+ = 332”.
In turn, `CC(C)C(O)(COc1ccc(Cl)cc1)c1cncs1` (stereo not drawn) [Compound 23] displayed an efficacy with Sphaerotheca fuliginea of 80%.
Turning to `CC(C)(C)C(O)(COc1ccc(-c2ccc(Br)cc2)cc1)c1cncs1` (stereo not drawn) [Compound 52], in data set [1], the logP result is “logP 4.71^[a]; [M + H]^+ = 432/434”. This compound also gave an efficacy in the data set on Sphaerotheca fuliginea of 100%.
Turning to `CC1(C(O)(COc2cccc([N+](=O)[O-])c2)c2cncs2)CC1` (stereo not drawn) [Compound 45], the logP result in data set [1] was “logP 2.62^[a]; [M + H]^+ = 321”.
In the case of `CC(C)(C)C(O)(COc1ccc(Oc2ccc(F)cc2)cc1)c1cncs1` (stereo not drawn) [Compound 38], the logP result in data set [1] is “logP 4.03^[a]; [M + H]^+ = 388”. In addition, the efficacy with Sphaerotheca fuliginea is 98%.
The matching figures for `CC(C)(C)C(O)(COc1ccc(-c2ccc(C#N)cc2)cc1)c1cncs1` (stereo not drawn) [Compound 51]: “logP 3.46^[a]; [M + H]^+ = 379” and 94%.
In the case of `CC(C)C(O)(COc1ccc(Br)cc1)c1cncs1` (stereo not drawn) [Compound 22], in the data set with Sphaerotheca fuliginea, the efficacy was 96%.
In turn, `CC(=O)c1ccc(-c2ccc(OCC(O)(c3cncs3)C(C)(C)C)cc2)cc1` (stereo not drawn) [Compound 31] yielded an efficacy in the data set with Sphaerotheca fuliginea of 100%.
Turning to `CC(C)(/C=C/Cl)C(O)(COc1ccc(Cl)cc1)c1cncs1` (stereo not drawn) [Compound 54], the logP entry in data set [1] was “logP 3.67^[a]; [M + H]^+ = 358”. The compound also came in with an efficacy in the data set on Sphaerotheca fuliginea of 95%.
Regarding `CC(C)[Si](c1ncc(C(O)(Cc2ccccc2Cl)C2(Cl)CC2)o1)(C(C)C)C(C)C` (stereo not drawn) [Compound 68], the logP entry in data set [1] is “logP 7.18^[a]; [M + H]^+ = 455”.
Turning to `CC(C)[Si](c1ncc(C(O)(CCc2ccc(Cl)cc2)C(C)(C)C)o1)(C(C)C)C(C)C` (stereo not drawn) [Compound 70], in data set [1], the logP entry was “logP 7.36^[a]; [M + H]^+ = 451”.
For the compound `CC1(C(O)(COc2ccccc2Br)c2cncs2)CC1` (stereo not drawn) [Compound 24], the efficacy in the data set on Sphaerotheca fuliginea came out at 83%.
On to `CC(C)(C)C(O)(COc1ccc(-c2ccc(I)cc2)cc1)c1cncs1` (stereo not drawn) [Compound 19], for which the logP result in data set [1] was “logP 4.89^[a]; [M + H]^+ = 480”.
Turning to `CC(C)(C)C(O)(COc1ccc(I)cc1)Cc1cnc(Cl)s1` (stereo not drawn) [Compound 62], the logP result in data set [1] was “logP 5.12^[a]; [M + H]^+ = 452”.
The same measure, in the same setting: to `CC(C)(C)C(O)(COc1ccc(F)cc1)Cc1cnc(Cl)s1` (stereo not drawn) [Compound 63] belongs “logP 4.20^[a]; [M + H]^+ = 344”.
Turning to `CC(C)(C)C(O)(COc1ccc(Oc2ccc(Cl)cc2)cc1)c1cncs1` (stereo not drawn) [Compound 29], the logP entry in data set [1] was “logP 4.50^[a]; [M + H]^+ = 404”. The compound further displayed an efficacy with Sphaerotheca fuliginea of 98%.
With `OC(Cc1ccccc1Cl)(c1cncs1)C1(F)CC1` (stereo not drawn) [Compound 11], the efficacy is recorded as 78% in data set [2] and 70% with Sphaerotheca fuliginea. Also, the logP result in data set [1] was “logP 2.64^[a]; [M + H]^+ = 298”.
As for `COc1ccc(CCC(O)(c2cncs2)C(C)(C)C)cc1` (stereo not drawn) [Compound 73], the logP entry in data set [1] is “logP 2.94^[a]; [M + H]^+ = 306”. In the data set with Sphaerotheca fuliginea, this compound displayed an efficacy of 78%.
For the compound `OC(COc1ccc(Cl)cc1)(c1cncs1)C1(Cl)CC1` (stereo not drawn) [Compound 16], the efficacy with Sphaerotheca fuliginea is reported as 78%.
With `COc1cc(-c2ccccc2)ccc1OCC(O)(c1cncs1)C(C)(C)C` (stereo not drawn) [Compound 49], the logP result in data set [1] was “logP 4.02^[a]; [M + H]^+ = 384”.
`CC(C)(C)C(O)(Cc1ccc(F)cc1)c1cncs1` (stereo not drawn) [Compound 48]: the chromatographic logP in data set [1] (reversed-phase C18 HPLC column) came out at 2.91.
Take `CC(C)(C)C(O)(COc1cccc(Oc2ccccc2)c1)c1cncs1` (stereo not drawn) [Compound 43]: in data set [1], the logP result is “logP 3.98^[a]; [M + H]^+ = 370”.
In the data set with Sphaerotheca fuliginea, `CC(C)(C)C(O)(CCc1ccc(Cl)cc1)c1cncs1` (stereo not drawn) [Compound 5] registered an efficacy of 100%.
`CC(C)(C)C(O)(COc1ccc(Oc2ccc(Br)cc2)cc1)c1cncs1` (stereo not drawn) [Compound 28]: the logP result in data set [1] is “logP 4.66^[a]; [M + H]^+ = 448/450”. Also, in the data set on Sphaerotheca fuliginea, the efficacy stood at 95%.
`CC(C)C(O)(COc1ccc(I)cc1)c1cncs1` (stereo not drawn) [Compound 21] displayed an efficacy in the data set with Sphaerotheca fuliginea of 85%.
